Publication PMC11653257, “Organometallic Half-Sandwich Complexes of 8-Hydroxyquinoline-Derived Mannich Bases with Enhanced Solubility: Targeting Multidrug Resistant Cancer” (Inorganic Chemistry, 2024)

Key:
MES-SA [1] = test: Cytotoxicity in double coculture, MES-SA mCherry; conditions: read-out: IC50 MES-SA; double coculture with MES-SA/Dx5; 144 h; without TQ
[2] = tested on: Escherichia coli (ATCC 25922); test: Antibacterial MIC, E. coli; format: cell-based; conditions: Mueller Hinton Broth, 37 °C, 18 h
Protocol: (§1) Escherichia coli (ATCC 25922) was used as Gram-negative strain and Staphylococcus aureus (ATCC 25923, methicillin-resistant (MRSA) ATCC 43300) strains were applied as Gram-positive bacterial cultures in the experiments. MIC values of the compounds were determined in 96-well plates based on the Clinical and Laboratory Standard Institute guidelines (CLSI guidelines).[76] The stock solutions of the compounds (same as those used for cytotoxicity experiments) were diluted in 100 μL of Mueller Hinton Broth. Then, 10^–4 dilution of an overnight bacterial culture in 100 μL of medium was added to each well, with the exception of the medium control wells.

MES-SA/Dx5 [3] = test: Cytotoxicity in double coculture, MES-SA/Dx5 eGFP; conditions: for SR = IC50 (MES-SA)/IC50 (MES-SA/Dx5): double coculture; for IC50: read-out: IC50 MES-SA/Dx5, double coculture with MES-SA, 144 h
Protocol: Therefore, the novel half-sandwich complexes (1–4) and their corresponding ligands were tested against a coculture of MES-SA and MES-SA/Dx5 cells expressing the fluorescent proteins mCherry or eGFP, respectively.[62]
The tested compounds were dissolved in 50% (v/v) DMSO/PBS’ buffer to prepare 5–10 mM stock solutions, which were diluted in complete culture medium. Constitutive expression of the fluorescent proteins allowed multiplexing in cytotoxicity experiments.[62] […] Serial dilutions of the compounds were added 24 h after seeding. To address the effect of P-gp function, TQ was added at a nontoxic concentration (0.4 μM) 15 min before the test compounds. […] IC50 values and standard deviation were calculated from average pIC50 values from at least 3 independent measurements.

[4] = molecular target: human serum albumin (HSA), site II (Homo sapiens, UniProt P02768); test: HSA dansylglycine (DG) site marker displacement; conditions: cHSA = cDG = 1 μM; λEX = 335 nm (DG); pH 7.4 (PBS’); […]; 24 h
Protocol: (§4) Next, spectrofluorometric measurements were also performed to gain insight into the binding interactions that may occur in the hydrophobic binding sites of HSA. Tryptophan (Trp214) quenching experiments were conducted for the complexes (1–4) (for complex (3) see Figure S31) and their ligands). […] To monitor the binding at site II, site marker displacement experiments were performed using dansylglycine (DG).
(§5) Fluorescence measurements were carried out on a Fluoromax (Horiba Jobin Yvon, Longjumeau, France) spectrofluorometer using a 1 cm × 1 cm quartz cuvette. […] Excitation wavelengths were 295 nm for Trp-214 quenching and 340 nm for the DG displacement studies. The calculated conditional stability constants for HSA–complex species were obtained using the computer program HypSpec.[64] Calculations always were based on data obtained from at least two independent measurements.

[5] = tested on: Staphylococcus aureus (ATCC 25923); test: Antibacterial MIC, S. aureus; format: cell-based; conditions: Mueller Hinton Broth, 37 °C, 18 h
Protocol: as §1

[6] = pKa of in situ prepared complexes by pH-potentiometry; format: physicochemical; conditions: I = 0.20 M KNO3
Text: The results, shown in Table 2, indicate good agreement between the data obtained by the different methods. It should be noted that these processes show overlap in all cases, and therefore, the assignment of the pKa values to the given moieties cannot be made reliably. However, by comparing the spectral changes with those observed for HQ and other simple derivatives,[25] it can be concluded that the lower pKa likely belongs to the deprotonation of the aqua coligand.
The pH-potentiometric measurements were carried out at 25.0 ± 0.1 °C in water in the pH range between 2.0 and 11.5 and at a constant ionic strength of 0.20 M KNO3. The titrations were performed in a carbonate-free KOH solution (0.20 M). The exact concentrations of the HNO3 and KOH solutions were determined by pH-potentiometric titrations. An Orion 710A pH-meter equipped with a Metrohm combined electrode (type 6.0234.100) and a Metrohm 665 Dosimat buret were used for this purpose. […] The average water ionization constant, pKw, was determined as 13.76 ± 0.01, which is in good agreement with the literature data.[67] The initial volume of the samples was 10.0 mL. […] Samples were degassed by bubbling purified argon through them for about 10 min prior to the measurements, and the inert gas was also passed over the solutions during the titrations. The computer program Hyperquad2013[64] was utilized to establish the stoichiometry of the species and to calculate the equilibrium constants.

[7] = n-octanol/water distribution coefficient (shake-flask); format: physicochemical; conditions: pH 7.4, […]
Protocol: The exchange of the coligand (H2O/Cl^–) changes the overall charge of the complex, thus affecting lipophilicity. […] The traditional shake-flask method was used to obtain distribution coefficients of the ligands as well as of the complexes in n-octanol/buffered aqueous solution (20 mM phosphate, pH = 7.4) at different chloride ion concentrations (4, 24, and 100 mM) using UV–vis spectrophotometry (Agilent Cary 8454 diode array spectrophotometer, Santa Clara, CA, USA) for the analysis. The compounds were dissolved in buffered aqueous solutions previously saturated with n-octanol. Then the aqueous and n-octanol phases were gently mixed in different volume ratios (using 1:60 for the ligands, 1:1 for the RhCp* and 1:2 for the RuCym complexes ratios of n-octanol to buffered aqueous solution volume) for 4 h, followed by phase separation. Then the UV–vis spectrum of the aqueous or n-octanol phase was recorded and compared to the reference spectrum. Stock solutions were made in the aqueous phase, and distribution coefficients (DpH) were calculated by the following equation: [drawing 3]

[8] = Ligand displacement with 2,2′-bipyridine, conditional formation constant; format: physicochemical; conditions: pH 7.4; bpy competitor; UV–vis
Text: These pKa (H2O) values are lower than those of the complexes formed with the corresponding amino acid hybrids (HQCl-D-Pro, HQCl-D-hPro, Figure S23). Thus, the predominant complex at pH 7.4 is [M(arene)(HL)(H2O)]^2+ in all cases, in which the bidentate ligand coordinates via the (N,O^–) donor set and the pyridinium or pyrrolidinium nitrogens are protonated just like in the isolated complexes (Chart 3). Based on the unchanged spectra (vide supra), these types of complexes show no dissociation at pH = 2, indicating their high stability and hindering the direct determination of the formation constants. Therefore, a ligand displacement experiment was performed using UV–vis spectrophotometry with 2,2′-bipyridine (bpy) as a competitor to determine conditional formation constants at pH = 7.4 (Figure S25). […] Nevertheless, these values indicate a high stability of the complexes in solution, and <1% of dissociation is estimated at 1 μM concentration at pH = 7.4. The ligand displacement measurement could not be applied to the RuCym complexes due to the release of the p-cymene ring followed by the formation of the mixed ligand complex with bpy and oxidation of the metal center (Figure S26), similarly to analogue complexes.[14],[26],[27]

[9] = molecular target: human serum albumin (HSA), Trp214 / site I (Homo sapiens, UniProt P02768); test: HSA Trp214 fluorescence quenching; conditions: 1 μM HSA; λEX = 295 nm (Trp-214); pH 7.4 (PBS’); […]; 24 h
Protocol: as §4, §5

[10] = tested on: methicillin-resistant S. aureus (MRSA) ATCC 43300; test: Antibacterial MIC, MRSA; format: cell-based, Staphylococcus aureus; conditions: Mueller Hinton Broth, 37 °C, 18 h
Protocol: as §1

[11] = H2O/Cl– coligand exchange by UV–vis titration with chloride ions; format: physicochemical
Protocol: When the isolated complexes (1–4) are dissolved in water, their chlorido coligand can be replaced by water, or vice versa in the aqua complexes [M(arene)(HL)(H2O)]^2+, the H2O → Cl^– exchange process can take place in the presence of chloride ions. The chloride ion affinity of the complexes was also investigated by UV–vis spectrophotometry. RhCp* and RuCym complexes were titrated with chloride ions at pH 7.4 and 6.0, respectively. For this experiment, pH values were chosen at which the formation of the mixed hydroxido species is negligible. A representative spectrum series for complex (4) is shown in Figure S27, and the calculated conditional exchange constants (logK’ (H2O/Cl^–)) are given in Table 2 and in Figure S23. […] The complexes of the amino acid hybrids HQCl-D-Pro and HQCl-D-hPro have lower logK’ (H2O/Cl^–) constants most likely due to the repulsive effect of the nearby COO^– group.[26]

MES-SA/B1 = test: Cytotoxicity in triple coculture, MES-SA/B1 mOrange; format: cell-based, human
Protocol: (§2) Cell lines were purchased from the American Type Culture Collection (ATCC). MES-SA/B1 is a human MDR1-transfected derivative of MES-SA, and MES-SA mCherry, MES-SA/B1 mOrange, and MES-SA/Dx5 eGFP were engineered to stably express the respective fluorescent proteins previously.[62] Cells were kept in culture medium (DMEM) supplemented with 10% fetal bovine serum, 2 mM L-glutamine, 100 units/mL penicillin, and 100 μg/mL streptomycin (Thermo Fisher). One week before use, MES-SA/Dx5 eGFP cells were treated with 0.5 μM doxorubicin to ensure ABCB1/P-gp expression.
(§3) The tested compounds were dissolved in 50% (v/v) DMSO/PBS’ buffer to prepare 5–10 mM stock solutions, which were diluted in complete culture medium. Constitutive expression of the fluorescent proteins allowed multiplexing in cytotoxicity experiments.[62] Cells were mixed before seeding in 384-well plates: in double cocultures, MES-SA mCherry and MES-SA/Dx5 eGFP cells were seeded at 1250–1250 cells/well (in total 2500 cells/well); while in triple cocultures, MES-SA mCherry, MES-SA/Dx5 eGFP and MES-SA/B1 mOrange cells were seeded at 800–800–800 cells/well (in total 2400 cells/well). Serial dilutions of the compounds were added 24 h after seeding. To address the effect of P-gp function, TQ was added at a nontoxic concentration (0.4 μM) 15 min before the test compounds. The intensity of the fluorescent proteins, which is proportional to cell mass, was measured after 144 h of incubation at the respective fluorescent channels (excitation/emission: eGFP: 485 nm/510 nm; mOrange: 545 nm/567 nm; mCherry: 585 nm/610 nm). pIC50 values were calculated by a custom program written by Judit Sessler in C#.[62] IC50 values and standard deviation were calculated from average pIC50 values from at least 3 independent measurements.

MES-SA [12] = test: Cytotoxicity in triple coculture, MES-SA mCherry; format: cell-based, human; conditions: Homo sapiens, MES-SA/B1, MES-SA/Dx5, 144 h
Protocol: as §2, §3

MES-SA/Dx5 [13] = test: Cytotoxicity in triple coculture, MES-SA/Dx5 eGFP; format: cell-based, human
Protocol: as §2, §3

[14] = pKa of in situ prepared complexes by UV–vis titration; format: physicochemical; conditions: 1:1 system, absence of chloride, I = 0.20 M KNO3
Text: The UV–vis spectra of the complexes prepared in situ were then followed at different pH values in the absence of chloride ions. No spectral changes were observed between pH = 2–6.3 (RuCym) or 7.5 (RhCp*), indicating high solution stability in both cases; however, the changes were significant in the basic pH range (Figure S22). In the case of RuCym complexes, two overlapping processes associated with the deprotonation of the coordinated water molecule and the noncoordinated Npyr/pipH^+ moiety were observed. […] The pKa values determined for these processes are shown in Table 2 and Figure S23 together with the values obtained for complexes formed with the amino acid hybrids HQCl-D-Pro and HQCl-D-hPro (Chart 2) for comparison.[26]
An Agilent Cary 8454 diode array spectrophotometer was utilized to obtain UV–vis spectra in the wavelength range 190–1100 nm. The path length (l) was 1 or 2 cm in most cases (the actual l is always indicated in the legends of the figures). The concentrations of the ligands and complexes were between 36 and 100 μM. The ligands were titrated in the presence of 10 equiv of EDTA. Individual samples contained 0–37 μM HSA, 0–206 μM MIM, 0–759 μM AHA, or 0–733 μM FHA. Spectra were always background and baseline corrected. The computer program HypSpec[64] was used to obtain stability constants.

Sequence of human serum albumin (HSA), site II (P02768 25-609): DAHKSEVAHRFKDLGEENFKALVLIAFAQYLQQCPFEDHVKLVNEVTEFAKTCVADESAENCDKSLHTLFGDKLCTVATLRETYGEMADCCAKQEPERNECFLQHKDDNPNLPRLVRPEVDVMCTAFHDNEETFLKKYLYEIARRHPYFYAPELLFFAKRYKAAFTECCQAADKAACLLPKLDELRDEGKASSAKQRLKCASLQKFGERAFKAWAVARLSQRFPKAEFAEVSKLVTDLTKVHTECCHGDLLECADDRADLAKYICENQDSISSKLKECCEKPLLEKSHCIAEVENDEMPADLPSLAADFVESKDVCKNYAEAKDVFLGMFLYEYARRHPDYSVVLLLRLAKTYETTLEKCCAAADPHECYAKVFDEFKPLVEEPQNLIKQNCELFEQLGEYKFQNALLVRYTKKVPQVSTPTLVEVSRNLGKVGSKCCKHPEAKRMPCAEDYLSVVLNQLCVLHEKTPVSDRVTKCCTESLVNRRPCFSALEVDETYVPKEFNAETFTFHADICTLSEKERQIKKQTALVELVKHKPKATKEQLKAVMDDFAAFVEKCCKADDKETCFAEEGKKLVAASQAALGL
Sequence of human serum albumin (HSA), Trp214 / site I (P02768 25-609): as above

Compound	IC50 (MES-SA [1]) [nM]	MIC [2] [µM]	SR = IC50 (MES-SA)/IC50 (MES-SA/Dx5) (MES-SA/Dx5 [3]; + 0.4 μM tariquidar (TQ))	SR = IC50 (MES-SA)/IC50 (MES-SA/Dx5) (MES-SA/Dx5 [3]; without TQ)	IC50 (MES-SA/Dx5 [3]; without TQ) [nM]	logK’(DG) [4]	MIC [5] [µM]	pKa (H2O) [6]	pKa (Npyr/pipH+) [6]	logD7.4 ([7]; c(Cl–) = 4 mM)	logD7.4 ([7]; c(Cl–) = 24 mM)	logD7.4 ([7]; c(Cl–) = 100 mM)	logK’(quenching) [9]	MIC [10] [µM]	other results
Cc1c(C)c(C)[c-](C)c1C.[Cl-].[Cl-].[O-]c1c(C[NH+]2CCCC2)cc(Cl)c2cccnc12.[Rh+3] [(1), [RhCp*(HQCl-Pyr)Cl]Cl]	2970	50	1.3	16.0	190	5.0 ± 0.1	50	9.35 ± 0.03	10.47 ± 0.03	–0.11 ± 0.01	+0.12 ± 0.01	+0.22 ± 0.01	5.1 ± 0.1	50	logK’ [M(arene)L]7.4 conditional formation constant [8]: 12.06 ± 0.02; logK’ (H2O/Cl–) ([11]; RhCp* complexes titrated at pH 7.4): 2.23 ± 0.02
COc1cc([C@@H]2c3cc4c(cc3[C@@H](O[C@@H]3O[C@@H]5CO[C@@H](C)O[C@H]5[C@H](O)[C@H]3O)[C@H]3COC(=O)[C@H]23)OCO4)cc(OC)c1O [etoposide]															SR B1 = IC50 (MES-SA)/IC50 (MES-SA/B1) (MES-SA/B1): 0.22; IC50 (MES-SA [12]): 260 nM; SR Dx5 = IC50 (MES-SA)/IC50 (MES-SA/Dx5) (MES-SA/Dx5 [13]): 0.15; IC50 (MES-SA/Dx5 [13]; Homo sapiens, MES-SA/Dx5, 144 h): 1700 nM
[RuCym(HQCl-Pyr)Cl]Cl [(2)]	8970	> 100	0.1	3.2	2780	5.2 ± 0.1	> 100	8.47 ± 0.04	10.40 ± 0.03	–0.12 ± 0.02	+0.23 ± 0.03	+0.46 ± 0.02	5.3 ± 0.2	> 100	pKa (H2O) [14]: 8.42 ± 0.03; pKa (Npyr/pipH+) [14]: 10.32 ± 0.03; logK’ (H2O/Cl–) ([11]; RuCym complexes titrated at pH 6.0): 1.60 ± 0.07
